Legend:
Format in all cases: in vivo
[1] = test system: Tetranychus urticae; assay: Tetranychus urticae (two-spotted spider mite) leaf disc spray test; conditions: foliar, 192 h, 200 ppm sprayed on bean leaf discs, mite populations of mixed ages, egg, larval and adult mortality 8 days later
Text: Tetranychus urticae (Two-Spotted Spider Mite):
Bean leaf discs on agar in 24-well microtiter plates were sprayed with test solutions at an application rate of 200 ppm. After drying, the leaf discs are infested with mite populations of mixed ages. 8 days later, discs are checked for egg mortality, larval mortality, and adult mortality.

[2] = test system: Diabrotica balteata; assay: Diabrotica balteata (corn root worm) artificial diet test; conditions: 120 h, 200 ppm (concentration in well 18 ppm) on artificial diet, L2 larvae, larval mortality and growth regulation after 5 days
Description: Diabrotica balteata (Corn Root Worm):
A 24-well microtiter plate (MTP) with artificial diet was treated with test solutions at an application rate of 200 ppm (concentration in well 18 ppm) by pipetting. After drying, the MTP's were infested with L2 larvae (6-10 per well). After an incubation period of 5 days, samples were checked for larval mortality and growth regulation.

[3] = test system: Heliothis virescens; assay: Heliothis virescens (tobacco budworm) egg test on artificial diet; conditions: 96 h, 200 ppm (concentration in well 18 ppm) by pipetting, eggs 0-24 h old on artificial diet, egg mortality, larval mortality, growth regulation after 4 days
Description: Heliothis virescens (Tobacco Budworm):
Eggs (0-24 h old) were placed in 24-well microtiter plate on artificial diet and treated with test solutions at an application rate of 200 ppm (concentration in well 18 ppm) by pipetting. After an incubation period of 4 days, samples were checked for egg mortality, larval mortality, and growth regulation.

[4] = test system: Plutella xylostella; assay: Plutella xylostella (diamond back moth) artificial diet test; conditions: 144 h, 200 ppm (concentration in well 18 ppm) on artificial diet, L2 larvae, larval mortality and growth regulation after 6 days
Description: Plutella xylostella (Diamond Back Moth):
24-well microtiter plate (MTP) with artificial diet was treated with test solutions at an application rate of 200 ppm (concentration in well 18 ppm) by pipetting. After drying, the MTP's were infested with L2 larvae (7-12 per well). After an incubation period of 6 days, samples were checked for larval mortality and growth regulation.

[5] = test system: Thrips tabaci; assay: Thrips tabaci (onion thrips) leaf disc spray test; conditions: foliar, 168 h, 200 ppm sprayed on sunflower leaf discs, thrip population of mixed ages, mortality after 7 days
Description: Thrips tabaci (Onion Thrips):
Sunflower leaf discs were placed on agar in a 24-well microtiter plate and sprayed with test solutions at an application rate of 200 ppm. After drying, the leaf discs were infested with a thrip population of mixed ages. After an incubation period of 7 days, samples were checked for mortality.

[6] = test system: Spodoptera littoralis; assay: Spodoptera littoralis (Egyptian cotton leafworm) leaf disc spray test; conditions: foliar, 72 h, 200 ppm sprayed on cotton leaf discs, L1 larvae, mortality, feeding behavior, growth regulation 3 days after treatment
Text: Spodoptera littoralis (Egyptian Cotton Leafworm):
Cotton leaf discs were placed on agar in a 24-well microtiter plate and sprayed with test solutions at an application rate of 200 ppm. After drying, the leaf discs were infested with 5 L1 larvae. The samples were checked for mortality, feeding behavior, and growth regulation 3 days after treatment (DAT).

Measured: pest or weed control at 200 ppm

O=C(NC1CSC1)c1ccc(C2=NOC(c3cc(Cl)cc(Cl)c3)(C(F)(F)F)C2)c2cccnc12 (stereo not drawn) [Compound D12, 5-[5-(3,5-dichlorophenyl)-5-(trifluoromethyl)-4H-isoxazol-3-yl]-N-(thietan-3-yl)quinoline-8-carboxamide]
≥ 80%: all assays above
